Measurements published in ChEMBL document CHEMBL6109048, “Innovative design and potential applications of covalent strategy in drug discovery” (Eur J Med Chem, 2025).
Blank lines part the entries; values can stand above or below the molecule they belong to.

Assays:
[1] = biological target: Tyrosine-protein kinase ABL1 (Homo sapiens, UniProt P00519); experiment: Inhibition of 6His/SUMO- tagged human ABL1 (229 to 500 residues) extracted from Escherichia coli BL21 (DE3)
SRSF protein kinase 1 = SRSF protein kinase 1 (Homo sapiens, UniProt Q96SB4); experiment: Inhibition of SRPK1 (unknown origin)
Cathepsin G = biological target: T1, Cathepsin G (Homo sapiens, UniProt P08311); experiment: Inhibition of human Cathepsin G
T1 sequence (P08311 whole entry): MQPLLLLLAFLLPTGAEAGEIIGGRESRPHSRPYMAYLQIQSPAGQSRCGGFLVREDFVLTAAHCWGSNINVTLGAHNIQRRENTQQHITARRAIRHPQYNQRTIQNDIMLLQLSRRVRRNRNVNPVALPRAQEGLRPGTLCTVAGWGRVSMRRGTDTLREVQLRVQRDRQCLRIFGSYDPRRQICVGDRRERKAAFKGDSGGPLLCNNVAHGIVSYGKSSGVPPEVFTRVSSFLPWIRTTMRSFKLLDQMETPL

[2] = biological target: Mast/stem cell growth factor receptor Kit (Homo sapiens, UniProt P10721); experiment: Inhibition of c-KIT (unknown origin)
[3] = biological target: T2, Tyrosine-protein kinase JAK3 (Homo sapiens, UniProt P52333); experiment: Inhibition of JAK3 (unknown origin)
T2 sequence (P52333 whole entry): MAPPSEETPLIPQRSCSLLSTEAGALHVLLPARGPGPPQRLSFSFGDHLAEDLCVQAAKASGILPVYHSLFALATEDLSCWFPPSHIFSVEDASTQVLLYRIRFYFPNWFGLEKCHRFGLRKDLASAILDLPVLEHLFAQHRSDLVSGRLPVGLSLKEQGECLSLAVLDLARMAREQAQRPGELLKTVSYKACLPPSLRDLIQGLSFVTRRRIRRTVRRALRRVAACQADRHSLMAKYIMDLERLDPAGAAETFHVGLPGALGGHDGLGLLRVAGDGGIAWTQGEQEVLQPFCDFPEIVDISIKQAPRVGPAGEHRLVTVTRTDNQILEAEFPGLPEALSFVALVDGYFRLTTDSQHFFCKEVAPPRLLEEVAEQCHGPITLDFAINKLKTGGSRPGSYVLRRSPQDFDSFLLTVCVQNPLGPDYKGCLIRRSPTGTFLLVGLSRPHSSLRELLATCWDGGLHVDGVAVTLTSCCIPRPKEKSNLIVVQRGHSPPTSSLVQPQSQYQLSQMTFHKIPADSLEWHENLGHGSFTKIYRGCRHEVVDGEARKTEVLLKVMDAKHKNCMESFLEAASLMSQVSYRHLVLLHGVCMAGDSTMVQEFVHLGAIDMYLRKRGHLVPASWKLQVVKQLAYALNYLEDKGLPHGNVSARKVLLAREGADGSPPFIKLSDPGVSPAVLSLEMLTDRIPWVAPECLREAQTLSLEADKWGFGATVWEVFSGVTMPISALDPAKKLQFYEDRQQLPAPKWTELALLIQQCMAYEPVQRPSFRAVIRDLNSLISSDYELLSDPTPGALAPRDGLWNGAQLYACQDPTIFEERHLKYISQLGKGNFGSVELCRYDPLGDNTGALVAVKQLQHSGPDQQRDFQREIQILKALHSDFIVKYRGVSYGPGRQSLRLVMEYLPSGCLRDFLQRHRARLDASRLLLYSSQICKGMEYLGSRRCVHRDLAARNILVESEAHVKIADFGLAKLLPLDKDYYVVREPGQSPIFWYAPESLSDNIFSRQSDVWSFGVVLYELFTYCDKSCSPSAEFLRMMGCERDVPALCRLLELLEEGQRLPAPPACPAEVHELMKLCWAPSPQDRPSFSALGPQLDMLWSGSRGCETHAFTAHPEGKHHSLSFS

Neutrophil elastase = biological target: T3, Neutrophil elastase (Homo sapiens, UniProt P08246); experiment: Inhibition of human neutrophil elastase
T3 sequence (P08246 whole entry): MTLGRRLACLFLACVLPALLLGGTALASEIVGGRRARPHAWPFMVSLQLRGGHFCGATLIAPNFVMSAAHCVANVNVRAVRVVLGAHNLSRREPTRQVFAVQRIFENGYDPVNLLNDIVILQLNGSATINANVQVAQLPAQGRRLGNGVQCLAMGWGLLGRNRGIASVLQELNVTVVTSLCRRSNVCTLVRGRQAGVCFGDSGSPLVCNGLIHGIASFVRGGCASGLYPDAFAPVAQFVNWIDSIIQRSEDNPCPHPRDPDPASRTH

[4] = biological target: Epidermal growth factor receptor (Homo sapiens, UniProt P00533); experiment: Inhibition of EGFR (unknown origin) by ADP-Glo kinase assay
[5] = biological target: Cyclin-dependent kinase 3 (Homo sapiens, UniProt Q00526); experiment: Inhibition of recombinant CDK3 (unknown origin)
Chain of Cyclin-dependent kinase 3 (Q00526 whole entry): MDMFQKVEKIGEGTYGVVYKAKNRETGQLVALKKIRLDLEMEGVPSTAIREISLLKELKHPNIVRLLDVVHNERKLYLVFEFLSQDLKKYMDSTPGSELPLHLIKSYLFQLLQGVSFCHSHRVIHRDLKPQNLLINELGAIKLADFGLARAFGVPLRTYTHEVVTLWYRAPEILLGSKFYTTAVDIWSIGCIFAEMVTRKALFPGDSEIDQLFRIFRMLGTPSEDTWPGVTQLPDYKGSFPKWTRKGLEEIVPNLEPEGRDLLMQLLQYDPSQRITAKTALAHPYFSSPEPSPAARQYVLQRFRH

Chain of Mast/stem cell growth factor receptor Kit (P10721 whole entry): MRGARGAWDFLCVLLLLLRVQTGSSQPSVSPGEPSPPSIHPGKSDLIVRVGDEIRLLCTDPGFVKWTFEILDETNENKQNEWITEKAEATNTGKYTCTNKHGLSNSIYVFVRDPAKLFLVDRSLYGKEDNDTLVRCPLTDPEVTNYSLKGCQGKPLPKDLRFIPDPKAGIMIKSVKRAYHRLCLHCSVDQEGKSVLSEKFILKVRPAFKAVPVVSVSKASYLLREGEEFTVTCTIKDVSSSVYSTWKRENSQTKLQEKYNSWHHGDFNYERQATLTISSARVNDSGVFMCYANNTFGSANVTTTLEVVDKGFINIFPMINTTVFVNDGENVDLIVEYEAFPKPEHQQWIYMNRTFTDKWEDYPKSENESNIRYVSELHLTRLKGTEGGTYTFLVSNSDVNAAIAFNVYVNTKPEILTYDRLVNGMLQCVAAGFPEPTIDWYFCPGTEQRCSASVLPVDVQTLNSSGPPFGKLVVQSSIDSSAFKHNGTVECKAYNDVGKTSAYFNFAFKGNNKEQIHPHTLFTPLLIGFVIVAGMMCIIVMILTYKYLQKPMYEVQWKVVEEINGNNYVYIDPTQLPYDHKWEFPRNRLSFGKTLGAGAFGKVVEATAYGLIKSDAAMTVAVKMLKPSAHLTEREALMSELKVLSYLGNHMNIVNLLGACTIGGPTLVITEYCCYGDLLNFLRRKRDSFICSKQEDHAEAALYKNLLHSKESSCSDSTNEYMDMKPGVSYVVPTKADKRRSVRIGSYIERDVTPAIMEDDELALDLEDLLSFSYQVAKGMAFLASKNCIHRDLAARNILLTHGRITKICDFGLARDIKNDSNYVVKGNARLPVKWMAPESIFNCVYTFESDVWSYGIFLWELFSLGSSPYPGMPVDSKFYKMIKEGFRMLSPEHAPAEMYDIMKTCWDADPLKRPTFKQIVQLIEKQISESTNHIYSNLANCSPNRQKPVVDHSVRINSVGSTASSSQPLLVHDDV
Chain of Tyrosine-protein kinase ABL1 (P00519 whole entry, the tested form may be a part): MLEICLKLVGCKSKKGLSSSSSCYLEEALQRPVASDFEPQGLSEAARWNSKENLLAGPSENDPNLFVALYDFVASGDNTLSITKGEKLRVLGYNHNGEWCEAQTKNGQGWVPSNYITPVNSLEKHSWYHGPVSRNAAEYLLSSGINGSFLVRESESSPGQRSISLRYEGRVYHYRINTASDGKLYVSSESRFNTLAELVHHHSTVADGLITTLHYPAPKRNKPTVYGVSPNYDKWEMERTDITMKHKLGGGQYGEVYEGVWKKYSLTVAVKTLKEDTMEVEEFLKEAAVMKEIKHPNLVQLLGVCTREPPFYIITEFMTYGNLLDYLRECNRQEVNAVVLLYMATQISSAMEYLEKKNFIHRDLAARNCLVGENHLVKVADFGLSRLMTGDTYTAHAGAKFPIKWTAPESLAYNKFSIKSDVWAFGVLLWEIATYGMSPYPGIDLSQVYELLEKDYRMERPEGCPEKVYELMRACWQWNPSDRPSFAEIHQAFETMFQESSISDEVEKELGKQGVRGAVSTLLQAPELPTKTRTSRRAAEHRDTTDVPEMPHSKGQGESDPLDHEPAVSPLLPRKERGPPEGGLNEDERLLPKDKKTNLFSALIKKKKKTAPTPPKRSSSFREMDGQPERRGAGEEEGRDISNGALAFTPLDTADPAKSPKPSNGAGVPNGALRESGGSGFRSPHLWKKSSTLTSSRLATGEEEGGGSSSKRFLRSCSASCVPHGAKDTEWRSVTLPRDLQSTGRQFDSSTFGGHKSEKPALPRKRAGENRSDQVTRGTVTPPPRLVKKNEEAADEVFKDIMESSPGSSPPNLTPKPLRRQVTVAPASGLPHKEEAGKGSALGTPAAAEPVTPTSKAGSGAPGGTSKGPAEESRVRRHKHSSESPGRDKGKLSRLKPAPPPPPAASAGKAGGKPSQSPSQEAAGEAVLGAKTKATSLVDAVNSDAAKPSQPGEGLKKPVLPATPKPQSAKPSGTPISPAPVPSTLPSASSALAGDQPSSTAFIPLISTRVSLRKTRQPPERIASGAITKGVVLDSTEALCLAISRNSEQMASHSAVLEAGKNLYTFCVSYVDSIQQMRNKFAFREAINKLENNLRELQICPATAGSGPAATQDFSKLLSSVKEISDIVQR
Chain of SRSF protein kinase 1 (Q96SB4 whole entry): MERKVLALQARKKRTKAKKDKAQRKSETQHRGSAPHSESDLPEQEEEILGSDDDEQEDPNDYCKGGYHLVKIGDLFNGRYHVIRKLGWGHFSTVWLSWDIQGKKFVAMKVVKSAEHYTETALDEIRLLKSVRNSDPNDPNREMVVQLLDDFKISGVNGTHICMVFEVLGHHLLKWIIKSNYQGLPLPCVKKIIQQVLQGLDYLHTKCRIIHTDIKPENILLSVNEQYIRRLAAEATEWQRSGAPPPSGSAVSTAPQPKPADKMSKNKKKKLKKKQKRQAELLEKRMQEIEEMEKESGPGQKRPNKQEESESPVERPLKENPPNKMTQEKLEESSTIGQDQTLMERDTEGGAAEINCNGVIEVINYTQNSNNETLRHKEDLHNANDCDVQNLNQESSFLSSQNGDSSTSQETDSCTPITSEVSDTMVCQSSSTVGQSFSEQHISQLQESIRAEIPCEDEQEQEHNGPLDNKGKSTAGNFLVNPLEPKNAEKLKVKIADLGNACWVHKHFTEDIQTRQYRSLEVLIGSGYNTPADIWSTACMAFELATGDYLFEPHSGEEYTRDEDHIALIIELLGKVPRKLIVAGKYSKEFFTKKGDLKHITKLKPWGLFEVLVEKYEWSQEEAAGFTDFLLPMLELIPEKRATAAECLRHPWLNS
Chain of Epidermal growth factor receptor (P00533 whole entry): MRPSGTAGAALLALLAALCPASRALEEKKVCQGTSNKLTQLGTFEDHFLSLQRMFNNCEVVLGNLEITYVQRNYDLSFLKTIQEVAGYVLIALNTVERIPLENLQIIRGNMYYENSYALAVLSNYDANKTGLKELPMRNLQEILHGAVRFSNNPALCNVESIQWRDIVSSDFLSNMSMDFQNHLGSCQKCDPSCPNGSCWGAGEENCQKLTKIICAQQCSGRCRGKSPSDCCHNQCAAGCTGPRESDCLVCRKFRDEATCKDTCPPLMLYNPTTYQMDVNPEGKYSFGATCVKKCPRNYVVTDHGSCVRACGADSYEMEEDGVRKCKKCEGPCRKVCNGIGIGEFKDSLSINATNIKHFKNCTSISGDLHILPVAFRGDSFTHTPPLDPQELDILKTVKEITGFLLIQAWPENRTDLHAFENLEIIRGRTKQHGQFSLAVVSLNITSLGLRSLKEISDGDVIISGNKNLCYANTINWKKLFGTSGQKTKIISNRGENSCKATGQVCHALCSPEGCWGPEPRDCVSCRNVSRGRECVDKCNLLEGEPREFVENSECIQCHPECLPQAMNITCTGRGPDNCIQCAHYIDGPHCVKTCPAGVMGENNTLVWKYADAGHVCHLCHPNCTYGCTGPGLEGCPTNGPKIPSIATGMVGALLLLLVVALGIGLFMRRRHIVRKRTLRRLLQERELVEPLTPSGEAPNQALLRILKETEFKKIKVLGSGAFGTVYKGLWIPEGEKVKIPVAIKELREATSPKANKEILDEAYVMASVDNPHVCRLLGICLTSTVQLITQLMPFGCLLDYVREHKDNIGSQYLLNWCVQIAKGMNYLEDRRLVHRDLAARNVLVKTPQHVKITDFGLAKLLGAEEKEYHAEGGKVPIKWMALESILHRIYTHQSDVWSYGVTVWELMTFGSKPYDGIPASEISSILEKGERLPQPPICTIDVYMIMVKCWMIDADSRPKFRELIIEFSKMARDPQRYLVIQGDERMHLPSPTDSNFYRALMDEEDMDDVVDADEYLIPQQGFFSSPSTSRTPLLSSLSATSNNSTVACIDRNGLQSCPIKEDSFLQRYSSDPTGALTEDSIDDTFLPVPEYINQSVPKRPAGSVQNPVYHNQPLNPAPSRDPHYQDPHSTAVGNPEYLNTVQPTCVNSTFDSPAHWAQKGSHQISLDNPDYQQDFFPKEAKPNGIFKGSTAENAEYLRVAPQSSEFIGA

IC50 [1]: 2.4 nM
SMILES: C#Cc1cc(OC)c(-c2ccc3nc(NC(=O)NCCO)sc3c2)cc1C=O

IC50 (SRSF protein kinase 1): 1.15 nM
SMILES: CCc1cc2c(cc1-c1cc[nH]n1)C(C)(C)C1Cc3cc(C#N)ccc3C1C2=O (centres undefined)

SMILES: O=S(=O)(F)Oc1ccccc1S(=O)(=O)F
IC50 (Cathepsin G): > 200 nM

IC50 [2]: 2080 nM
SMILES: CC#CC1=Nc2cc(NC(=O)Cc3ncc(Oc4ccnc5cc(OC)ccc45)cc3OC)ccc2C(C)(C)O1

IC50 [3]: 60 nM
SMILES: CC#CC1Nc2cc(Nc3nccc(C4CN(C)c5ccccc54)n3)ccc2C(C)(C)O1 (centres undefined)

SMILES: O=S(=O)(F)c1ccccc1S(=O)(=O)F
IC50 (Cathepsin G): 190 nM
IC50 (Neutrophil elastase): 3300 nM

IC50 [4]: 48.2 nM
SMILES: C#Cc1cc(Nc2ncnc3cc(OCCOC)c(OCCOC)cc23)ccc1C=O

IC50 [5]: 69 nM
SMILES: CN(C)C/C=C/C(=O)Nc1ccc(C(=O)N2CCCC(Nc3ncc(Cl)c(-c4c[nH]c5ccccc45)n3)C2)cc1 (centres undefined)
